Measurements taken from patent US20020197653A1, “System for detecting reporter gene expression” (priority 2001, published 2002).

System: NOS gene under the control of the Gal10 promoter (iNOS)
Test: Small-molecule-induced expression of the NOS reporter gene in yeast, detected by bead-bound fluorescein-based NO sensor
Assay type: cell-based
Settings: yeast culture in 96-well plates, galactose final concentration 100 mM, TENTAGEL sensor beads, fluorescent microscope with CCD camera
Experimental: The lactone function of the sensor is effectively aminolysed at room temperature over 48 hours. The apparent loading achieved was about 10% (0.03 mmol/g), although it is possible that much lower loading was in fact achieved.
We have also obtained a yeast strain developed by Mansuy et al (Sari et al. Biochemistry 35(22):7204-7213, June 1996; incorporated herein by reference) in which transcription of the NOS gene is under the control of the Gal10 promoter and is therefore inducible (and is referred to as iNOS). We grew the yeast cells in glucose media (SGI medium containing 7 g/L yeast nitrogen base without amino acids, 1 g/L casamino acids, 20 g/L glucose, and 50 mg/L tryptophan, at 30 ° C.) so that expression of the iNOS gene was repressed. The cells were harvested and washed with medium lacking any sugar (7 g/L yeast nitrogen base without amino acids, 1 g/L casamino acids and 50 mg/L tryptophan), were resuspended in the same sugar-free medium, and were distributed into 96-well plates.
The TENTAGEL beads containing sensor were washed with CH2Cl2, THF, DMF, i-PrOH, MeOH, EtOH, and deionized water, and were dried. 10 μl of sensor beads in sugar-free medium were added to wells containing 170 μl of yeast culture (20-30 beads per well). […]

O=C[C@H](O)[C@@H](O)[C@@H](O)[C@H](O)CO [galactose]
color change of NO sensor beads exposed to induced cells (iNOS reporter expression): distinct color change (green ->yellow)
